Assay results taken from US5271944A, “Pharmacologically enhanced formulations” (Biofor, Ltd., priority 1991, dated 1993).

Tests used:
acetylcholine writhing = assay: mouse acetylcholine writhing test (analgesic activity); type: in vivo, mouse (CD-1); conditions: 1 mg/kg oral, 4 hours before intraperitoneal acetylcholine; writhes counted for 10 minutes
Protocol: This study was performed to evaluate and compare the analgesic effectiveness of the micronized and pulverized samples described in Example 1, Step A and Example 1, Step B. Analgesic activity was evaluated via the mouse acetylcholine writhing test using a modification of the procedure described by Collier et al in Nature (New Biol.), Volume 204: page 1316 (1964) and the British Journal of Pharmacology, Chemotherapy, Volume 32: page 295 (1968).
The test groups consisted of ten mile CD-1 mice (Charles River Laboratories) weighing 18-28 grams each. Test compounds suspended in 0.25% methylcellulose solution were administered orally by gavage and four hours later the mice were injected intraperitoneally with acetylcholine (0.55 mg/ml in 0.25% methyl cellulose). The number of writhes in each group of mice were counted for 10 minutes immediately following the injection of acetylcholine and percent inhibition was calculated as follows: […]

hind paw edema = assay: Anti-inflammatory activity: hind paw edema in adjuvant (Mycobacterium butyricum) arthritis rats; type: in vivo, rat (female Lewis); conditions: 1 mg/kg per day, dosed once daily for 4 days, paw volumes measured on fifth day
Protocol: The effectiveness of the micronized sample as an anti-inflammatory agent and its comparison to the pulverized form was evaluated.
This study is a modification of the method described by Wong, et al in the Journal of Pharmacology and Experimental Therapeutics, Vol. 185: No. 1, pages 127-138 (1973).
The left and right rear paws of female Lewis rats (Charles River Laboratories) weighing 160-180 grams each were measured by mercury displacement prior to injection (Day Zero).
Adjuvant arthritis was induced in this rat colony by subcutaneous injection of Mycobacterium butyricum (0.75 mg in 0.1 ml light mineral oil, Fisher) using an automated Cornwall syringe. On days 11-15 post-adjuvant, the injected animals with 0.25 to 0.76 ml paw edema were selected and distributed evenly, according to edema size, into control and experimental groups of ten rats each. Vehicle control and drug treatments were assigned to the groups at random. […] All animals were dosed once daily for 4 days and on the fifth day both hind paw volumes were again measured using mercury displacement.
The hind paw edema was determined for each rat by subtracting the hind paw volume measured on Day Zero from the hind paw volume measured on the fifth day of the study. Group means were determined and the drug effect was calculated as percent inhibition of the hind paw edema according to the following equation: […]

adjuvant polyarthritis = assay: Adjuvant polyarthritis in polyarthritic injected rats (hind feet weight); type: in vivo, rat (male Lewis); conditions: for ED50: oral once daily for 5 days (Days 9-13), hind feet weighed Day 15, 21600 min
Protocol: The object of this study was to compare the anti-inflammatory activity of the micronized and unmicronized samples when administered orally to polyarthritic injected rats.
This anti-inflammatory study was conducted according to the method described by Chang, Y., Pearson, C.M. and Abe, C. in Arthritis and Rheumatism, Volume 23: pp. 62-71 (1980).
Male Lewis rats weighing 200 to 220 grams were divided into groups of 5 and housed in hanging cages with food and water ad libitum. On Day Zero they were injected with 7.5 mg of N,N-dioctadecyl-N',N'bis(2-hydroxyethyl)propane diamine suspended in mineral oil subcutaneously at the base of the tail. On Day 9 the animals were weighed and compound administration was begun. The micronized and unmicronized samples described in Example 1, Steps A and B, were suspended in solution using a tissue homogenizer in 1% carboxy methyl cellulose. These compounds were administered orally once daily for 5 days (Days 9-13) with no dosing on day 14. On Day 15, the hind feet were removed just above the ankle joint and weighed, and percent difference from the diseased control was calculated.

Structure (SMILES) | % Inhibition (acetylcholine writhing assay) (acetylcholine writhing) [%] | % Inhibition (hind paw edema) (hind paw edema) [%] | ED50 (adjuvant polyarthritis) [mg/kg] | % Inhibition (hind paw edema) (hind paw edema; listed as Example 1, Step B micronized) [%] | increase in potency of micronized compared to unmicronized sample (adjuvant polyarthritis; ratio of ED50, adjuvant polyarthritis) | degree of increase in anti-inflammatory effectiveness attributable to micronization vs unmicronized product (adjuvant polyarthritis; general statement, test not named)
CN1OCCC(=Cc2cc(C(C)(C)C)c(O)c(C(C)(C)C)c2)C1=O [Example 1, Step B, dihydro-4-(3,5-di-tert-butyl-4-hydroxy-benzylidene)-2-methyl-2H-1,2-oxazin-3(4H)-one] | 63 | 20 | 16.2 |  |  | 
CN1OCCC(=Cc2cc(C(C)(C)C)c(O)c(C(C)(C)C)c2)C1=O [Example 1, Step A, dihydro-4-(3,5-di-tert-butyl-4-hydroxy-benzylidene)-2-methyl-2H-1,2-oxazin-3(4H)-one] | 100 |  | 2.8 | 35 | almost six fold increase in potency | 
CN1OCCC(=Cc2cc(C(C)(C)C)c(O)c(C(C)(C)C)c2)C1=O [active ingredient, dihydro-4-(3,5-di-tert-butyl-4-hydroxybenzylidene)-2-methyl-2H-1,2-oxazin-3(4H)-one] |  |  |  |  |  | at least six fold
